From patent EP3046573B1, “AMYLIN ANALOGUES” (Zealand Pharma A/S, priority 2013, dated 2015)
Like-named read-outs stand apart in the source and are kept apart here. Numbered stars: 1 amine (or outer) side, 2 acyl side, 3 side chain; on linkers, the order of the positions; unused ones are H or OH. Bridge positions count the residues as written; N and C are the ends. Square brackets hold non-standard residues; d marks the D form. Peptide text beside a SMILES is read from it. * marks the point of attachment. C20 diacid = O=C(O)CCCCCCCCCCCCCCCCCCC(=O)*; γGlu = O=C(O)[C@H](CCC(=O)[*:2])N[*:1]; NMeI = CC[C@H](C)[C@H](NC)C(=O)O; Sar = CNCC(=O)O

Tests used:
[1] = biological target: T1, human amylin receptor 3 (hAMYR3) consisting of hCTR2 co-expressed with human Receptor Activity Modifying Protein 3 (hRAMP3) (Homo sapiens, UniProt O60896+P30988); experiment: hAMYR3 assay: induction of cAMP (AlphaScreen cAMP Assay kit) in COS7 cells expressing hAMYR3; format: cell-based
T1 construct: expressed in transfected cells
T1 sequence (P30988 25-474): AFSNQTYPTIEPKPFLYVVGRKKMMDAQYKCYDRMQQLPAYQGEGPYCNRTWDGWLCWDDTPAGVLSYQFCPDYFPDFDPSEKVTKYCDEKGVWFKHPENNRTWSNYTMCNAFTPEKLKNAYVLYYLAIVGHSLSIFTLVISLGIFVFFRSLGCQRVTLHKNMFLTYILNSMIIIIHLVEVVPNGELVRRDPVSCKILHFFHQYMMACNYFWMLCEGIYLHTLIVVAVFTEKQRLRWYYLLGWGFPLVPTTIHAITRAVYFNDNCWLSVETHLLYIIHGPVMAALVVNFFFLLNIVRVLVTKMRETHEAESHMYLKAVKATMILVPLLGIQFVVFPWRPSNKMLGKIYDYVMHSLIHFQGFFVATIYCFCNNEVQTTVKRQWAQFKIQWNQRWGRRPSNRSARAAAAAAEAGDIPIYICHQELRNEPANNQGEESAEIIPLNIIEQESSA
T1 sequence (O60896 24-148 partner): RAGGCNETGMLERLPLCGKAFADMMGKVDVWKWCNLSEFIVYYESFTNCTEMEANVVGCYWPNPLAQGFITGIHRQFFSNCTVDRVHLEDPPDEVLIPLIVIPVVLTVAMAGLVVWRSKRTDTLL
How it was run: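 Stable COS7 clone co-expressing hCTR2 and hRAMP3, stimulated 15 min at 37° C with increasing peptide in Tyrode buffer pH 7.4 with 100 µM IBMX and 0.1% casein. cAMP measured by AlphaScreen after lysis; EC50 and % efficacy versus pramlintide from 4PL fit.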

[2] = Solubility assessment (turbidity absorbance at 325 nm); format: physicochemical; conditions: stock 2 mg/ml diluted 1:1, ambient temperature (typically 25°C), n=1; for Solubility, Acetate buffer pH 4: 100 mM acetate buffer pH 4.0; for Solubility, Acetate buffer pH 5: 100 mM acetate buffer pH 5.0; for Solubility, Histidine buffer pH 6: 100 mM histidine buffer pH 6.0; for Solubility, Histidine buffer pH 7: 100 mM histidine buffer pH 7.0; for Solubility, Phosphate buffer pH 6: 100 mM phosphate buffer pH 6.0; for Solubility, Phosphate buffer pH 7: 100 mM phosphate buffer pH 7.0; for Solubility, Phosphate buffer pH 7.5: 100 mM phosphate buffer pH7.5
How it was run: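 Peptide stock (2 mg/ml) in water acidified to pH 2.5 with HCl was diluted 1:1 into 100 mM acetate (pH 4.0, 5.0), histidine (pH 6.0, 7.0) or phosphate (pH 6.0, 7.0, 7.5) buffer. A280 and A325 were read at about 25°C, n=1. A325 ≤ 0.02 meant solubility ≥ 1 mg/ml.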

[3] = biological target: T2, human calcitonin receptor (hCTR2) (Homo sapiens, UniProt P30988); experiment: hCTR2 assay: induction of cAMP (AlphaScreen cAMP Assay kit) in COS7 cells expressing hCTR2; format: cell-based
T2 construct: expressed in transfected cells
T2 sequence (P30988 25-474): T1 sequence (P30988 25-474)
How it was run: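 Stable hCTR2 clone in RAMP-naive COS7 cells; peptides titrated in Tyrode buffer (pH 7.4) with 100 µM IBMX, 0.1% casein, 15 min at 37° C. cAMP read by AlphaScreen after lysis; EC50 and efficacy relative to pramlintide from 4PL fit.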

Row | EC50 ([1]; cAMP induction in COS7 cells expressing hAMYR3, average of a minimum of 3 determinations, read-out: hAMY R3 EC50) | EC50 ([3]; cAMP induction in COS7 cells expressing hCTR2, average of a minimum of 3 determinations, read-out: hCTR2 EC50) | SMILES | EC50 [1] | Solubility, Acetate buffer pH 4 [2] | Solubility, Acetate buffer pH 5 [2] | Solubility, Histidine buffer pH 6 [2] | Solubility, Histidine buffer pH 7 [2] | Solubility, Phosphate buffer pH 6 [2] | Solubility, Phosphate buffer pH 7 [2] | Solubility, Phosphate buffer pH 7.5 [2] | EC50 [3]
1 | – | – | CC[C@H](C)[C@@H](C(=O)N[C@@H](CC(C)C)C(=O)N[C@@H](CO)C(=O)N[C@@H](CO)C(=O)N[C@H](C(=O)N[C@@H](CC(N)=O)C(=O)N[C@H](C(=O)NCC(=O)N[C@@H](CO)C(=O)N[C@@H](CC(N)=O)C(=O)N[C@H](C(=O)N1CCC[C@H]1C(N)=O)[C@@H](C)O)C(C)C)[C@@H](C)O)N(C)C(=O)[C@H](C)NC(=O)CN(C)C(=O)[C@H](Cc1ccccc1)NC(=O)[C@H](CC(N)=O)NC(=O)[C@H](CC(N)=O)NC(=O)[C@H](CO)NC(=O)[C@H](CO)NC(=O)[C@H](Cc1c[nH]cn1)NC(=O)[C@H](Cc1c[nH]cn1)NC(=O)[C@H](CC(C)C)NC(=O)[C@H](Cc1ccccc1)NC(=O)[C@H](CCC(=O)O)NC(=O)[C@H](C)NC(=O)[C@H](CC(C)C)NC(=O)[C@H](CCCNC(=N)N)NC(=O)[C@H](CCC(N)=O)NC(=O)[C@@H](NC(=O)[C@H](C)NC(=O)[C@@H]1CSSC[C@H](NC(=O)[C@H](CCCNC(=N)N)NC(=O)CC[C@H](NC(=O)CCCCCCCCCCCCCCCCCCC(=O)O)C(=O)O)C(=O)N[C@@H](CC(N)=O)C(=O)N[C@@H]([C@@H](C)O)C(=O)N[C@@H](C)C(=O)N[C@@H]([C@@H](C)O)C(=O)N1)[C@@H](C)O [Compound 1, [19CD]-isoGlu-RC()NTATC()ATQRLAEFLHHSSNNF-Gly(Me)-A-Ile(Me)-LSSTNVGSNTP-NH2] ({C20 diacid-γGlu}-RCNTATCATQRLAEFLHHSSNNF[Sar]A[NMeI]LSSTNVGSNTP-NH2; disulfide 2-7) | 0.21 nM | SS (SS indicates solubility ≥ 1mg/ml) | SS (SS indicates solubility ≥ 1mg/ml) | SS (SS indicates solubility ≥ 1mg/ml) | SS (SS indicates solubility ≥ 1mg/ml) | SS (SS indicates solubility ≥ 1mg/ml) | SS (SS indicates solubility ≥ 1mg/ml) | SS (SS indicates solubility ≥ 1mg/ml) | –
2 | – | – | CC[C@H](C)[C@@H](C(=O)N[C@@H](CC(C)C)C(=O)N[C@@H](CO)C(=O)N[C@@H](CO)C(=O)N[C@H](C(=O)N[C@@H](CC(N)=O)C(=O)N[C@H](C(=O)NCC(=O)N[C@@H](CO)C(=O)N[C@@H](CC(N)=O)C(=O)N[C@H](C(=O)N1CCC[C@H]1C(N)=O)[C@@H](C)O)C(C)C)[C@@H](C)O)N(C)C(=O)[C@H](C)NC(=O)CN(C)C(=O)[C@H](Cc1ccccc1)NC(=O)[C@H](CC(N)=O)NC(=O)[C@H](CC(N)=O)NC(=O)[C@H](CO)NC(=O)[C@H](CO)NC(=O)[C@H](CCCNC(=N)N)NC(=O)[C@H](Cc1c[nH]cn1)NC(=O)[C@H](CC(C)C)NC(=O)[C@H](Cc1ccccc1)NC(=O)[C@H](CCC(=O)O)NC(=O)[C@H](C)NC(=O)[C@H](CC(C)C)NC(=O)[C@H](CCCNC(=N)N)NC(=O)[C@H](CCC(N)=O)NC(=O)[C@@H](NC(=O)[C@H](C)NC(=O)[C@@H]1CSSC[C@H](NC(=O)[C@H](CCCNC(=N)N)NC(=O)CC[C@H](NC(=O)CCCCCCCCCCCCCCCCCCC(=O)O)C(=O)O)C(=O)N[C@@H](CC(N)=O)C(=O)N[C@@H]([C@@H](C)O)C(=O)N[C@@H](C)C(=O)N[C@@H]([C@@H](C)O)C(=O)N1)[C@@H](C)O [Compound 18, [19CD]-isoGlu-RC()NTATC()ATQRLAEFLHRSSNNF-Gly(Me)-A-Ile(Me)-LSSTNVGSNTP-NH2] ({C20 diacid-γGlu}-RCNTATCATQRLAEFLHRSSNNF[Sar]A[NMeI]LSSTNVGSNTP-NH2; disulfide 2-7) | 0.17 nM | SS (SS indicates solubility ≥ 1mg/ml) | SS (SS indicates solubility ≥ 1mg/ml) | SS (SS indicates solubility ≥ 1mg/ml) | SS (SS indicates solubility ≥ 1mg/ml) | SS (SS indicates solubility ≥ 1mg/ml) | SS (SS indicates solubility ≥ 1mg/ml) | SS (SS indicates solubility ≥ 1mg/ml) | 0.06 nM
3 | – | – | CC[C@H](C)[C@@H](C(=O)N[C@@H](CC(C)C)C(=O)N[C@@H](CO)C(=O)N[C@@H](CO)C(=O)N[C@H](C(=O)N[C@@H](CC(N)=O)C(=O)N[C@H](C(=O)NCC(=O)N[C@@H](CO)C(=O)N[C@@H](CC(N)=O)C(=O)N[C@H](C(=O)N1CCC[C@H]1C(N)=O)[C@@H](C)O)C(C)C)[C@@H](C)O)N(C)C(=O)[C@H](C)NC(=O)CN(C)C(=O)[C@H](Cc1ccccc1)NC(=O)[C@H](CC(N)=O)NC(=O)[C@H](CC(N)=O)NC(=O)[C@H](CO)NC(=O)[C@H](CO)NC(=O)[C@H](CCCNC(=N)N)NC(=O)[C@H](Cc1c[nH]cn1)NC(=O)[C@H](CC(C)C)NC(=O)[C@H](Cc1ccccc1)NC(=O)[C@H](CCC(=O)O)NC(=O)[C@H](C)NC(=O)[C@H](CC(C)C)NC(=O)[C@H](CCCNC(=N)N)NC(=O)[C@H](CCC(N)=O)NC(=O)[C@@H](NC(=O)[C@H](C)NC(=O)[C@@H]1CSSC[C@H](NC(=O)[C@H](CCCCN)NC(=O)[C@H](CCCCN)NC(=O)CC[C@H](NC(=O)CCCCCCCCCCCCCCCCCCC(=O)O)C(=O)O)C(=O)N[C@@H](CC(N)=O)C(=O)N[C@@H]([C@@H](C)O)C(=O)N[C@@H](C)C(=O)N[C@@H]([C@@H](C)O)C(=O)N1)[C@@H](C)O [Compound 87, [19CD]-isoGlu-KKC()NTATC()ATQRLAEFLHRSSNNF-Gly(Me)-A-Ile(Me)-LSSTNVGSNTP-NH2] ({C20 diacid-γGlu}-KKCNTATCATQRLAEFLHRSSNNF[Sar]A[NMeI]LSSTNVGSNTP-NH2; disulfide 3-8) | – | SS (SS indicates solubility ≥ 1mg/ml) | SS (SS indicates solubility ≥ 1mg/ml) | SS (SS indicates solubility ≥ 1mg/ml) | SS (SS indicates solubility ≥ 1mg/ml) | SS (SS indicates solubility ≥ 1mg/ml) | SS (SS indicates solubility ≥ 1mg/ml) | SS (SS indicates solubility ≥ 1mg/ml) | 0.046 nM
4 | 0.12 nM | 0.062 nM | CC[C@H](C)[C@@H](C(=O)N[C@@H](CC(C)C)C(=O)N[C@@H](CO)C(=O)N[C@@H](CO)C(=O)N[C@H](C(=O)N[C@@H](CCC(=O)O)C(=O)N[C@H](C(=O)NCC(=O)N[C@@H](CO)C(=O)N[C@@H](CCC(=O)O)C(=O)N[C@H](C(=O)N1CCC[C@H]1C(N)=O)[C@@H](C)O)C(C)C)[C@@H](C)O)N(C)C(=O)[C@H](C)NC(=O)CN(C)C(=O)[C@H](Cc1ccccc1)NC(=O)[C@H](CO)NC(=O)[C@H](CO)NC(=O)[C@H](CO)NC(=O)[C@H](CO)NC(=O)[C@H](CCCNC(=N)N)NC(=O)[C@H](Cc1c[nH]cn1)NC(=O)[C@H](CC(C)C)NC(=O)[C@H](Cc1ccccc1)NC(=O)[C@H](CCC(=O)O)NC(=O)[C@H](C)NC(=O)[C@H](CC(C)C)NC(=O)[C@H](CCCNC(=N)N)NC(=O)[C@H](C)NC(=O)[C@@H](NC(=O)[C@H](C)NC(=O)[C@@H]1CSSC[C@H](NC(=O)[C@H](CCCNC(=N)N)NC(=O)CC[C@H](NC(=O)CCCCCCCCCCCCCCCCCCC(=O)O)C(=O)O)C(=O)N[C@@H](CC(N)=O)C(=O)N[C@@H]([C@@H](C)O)C(=O)N[C@@H](C)C(=O)N[C@@H]([C@@H](C)O)C(=O)N1)[C@@H](C)O [Compound 118, [19CD]-isoGlu-RC()NTATC()ATARLAEFLHRSSSSF-Gly(Me)-A-Ile(Me)-LSSTEVGSETP-NH2] ({C20 diacid-γGlu}-RCNTATCATARLAEFLHRSSSSF[Sar]A[NMeI]LSSTEVGSETP-NH2; disulfide 2-7) | – | – | – | – | – | – | – | – | –
